Test results from EP0868915A1, “An anti-spasmodic and antiinflammatory composition containing a NSAID, pentifenone and fenpiverinium” (PANACEA BIOTEC LIMITED, priority 1997, dated 1998).
Where a name gives a salt, the structure may show the parent alone. Read-outs that look alike come from different tables or passages of the source.

Test system: distal portion of colon of rat
Test: Inhibition of acetylcholine-induced contraction of isolated rat colon (antispasmodic activity)
Conditions: for Percentage inhibition of Ach (100 ng/ml) -Induced contraction After Diclofenac Na: in presence of Diclofenac Sodium 20µ/ml; for inhibition at 0.01 µg/mL: Pitofenone Hcl dose 10 ng/ml; for inhibition at 0.02 µg/mL: Pitofenone Hcl dose 20 ng/ml; for inhibition at 0.04 µg/mL: Pitofenone Hcl dose 40 ng/ml; for inhibition at 0.08 µg/mL: Pitofenone Hcl dose 80 ng/ml
Description: In order to see the effect of NSAID on the Antispasmodic activity of Pitifenone hydrochloride and Fenpiverinium bromide an experiment was conducted on standard isolated tissues of experimental animal. The tissue chosen for the experiment was the distal portion of colon of rat. The NSAID selected for the experiment was Diclofenac Sodium.
The percentage inhibition of Acetylcholine - induced contraction (at dosage level of 100ng/m) was studied with varied concentration of Pitofenone Hydrochloride in the dose range of 10-80 nano gm/ml.
The percentage inhibition of Acetylcholine -induced contraction (at dosage level of 100ng/ml) was studied with varied concentration of Fenpiverinium bromide in the dose range of 0.5-2 ng/ml.
The experiment was then conducted at the same dose level of Acetylcholine and Fenpiverinium bromide but in the presence of Diclofenac Sodium (dose level 20µ gm/ml). The data obtained in the experiment is collected in Table -2.

[1] = Fenpiverinium Bromide dose 0.5 (ng/ml)
[2] = Fenpiverinium Bromide dose 1.0 (ng/ml)
[3] = Fenpiverinium Bromide dose 2.0 (ng/ml)
[4] = in presence of Diclofenac Sodium 20 µg/ml, read-out: Percentage inhibition of Ach (100 ng/ml) -induced contraction After Diclofenac Na
[5] = read-out: Percentage inhibition of Ach (100 ng/ml) -induced contraction Before Diclofenac Na

For `C[N+]1(CCC(C(N)=O)(c2ccccc2)c2ccccc2)CCCCC1` [Fenpiverinium Bromide, Fenpiverinium bromide], the “Percentage inhibition of Ach (100 ng/ml) -Induced contraction Before Diclofenac Na” value [1] was 43.8%, the “Percentage inhibition of Ach (100 ng/ml) -Induced contraction After Diclofenac Na” value [1] was 100% and the “Percentage inhibition of Ach (100 ng/ml) -Induced contraction Before Diclofenac Na” value [2] was 78.7%. The “Percentage inhibition of Ach (100 ng/ml) -Induced contraction After Diclofenac Na” value [2] was 100%, the “Percentage inhibition of Ach (100 ng/ml) -Induced contraction Before Diclofenac Na” value [3] was 100% and the “Percentage inhibition of Ach (100 ng/ml) -Induced contraction After Diclofenac Na” value [3] was 100%.

Molecule `COC(=O)c1ccccc1C(=O)c1ccc(OCCN2CCCCC2)cc1` [Pitofenone Hcl, Pitofenone Hydrochloride] has an inhibition at 0.01 µg/mL [4] of 100%, an inhibition at 0.01 µg/mL [5] of 0% and an inhibition at 0.02 µg/mL [4] of 100%. For the same molecule, the inhibition at 0.02 µg/mL [5] was 0%, the inhibition at 0.04 µg/mL [4] was 100% and the inhibition at 0.04 µg/mL [5] was 0%. For the same molecule, the inhibition at 0.08 µg/mL [4] was 100% and the inhibition at 0.08 µg/mL [5] was 20.2%.

`O=C(O)Cc1ccccc1Nc1c(Cl)cccc1Cl` [Diclofenac, Diclofenac Sodium] was tested, and the “action with Fenpiverinium bromide as an Antispasmodic” value (Diclofenac Sodium 20 µg/ml) was “synergistic (potentiating) action” and the “action with Pitofenone Hydrochloride as an Antispasmodic” value (Diclofenac Sodium 20 µg/ml) was “synergistic (potentiating) action”.
